Laboratory results as given in patent publication US10111437B2, “Substituted guanidines as fungicides” (Nippon Soda Co., Ltd., priority 2015, dated 2018).

Experiments:
[1] = tested on: wheat leaf rust fungus (Puccinia recondita); test: Wheat leaf rust control test (foliar spray on wheat seedlings); assay type: in vivo; settings: 240 h, 125 ppm active ingredient, sprayed on wheat seedlings (variety Norin 61) before inoculation, 10 days, vs untreated
[2] = tested on: Tomato late blight fungus (Phytophthora infestans); test: whole plant or invertebrate; assay type: in vivo; settings: foliar, 96 h, read-out: control value
[3] = tested on: cucumber gray mold fungus (Botrytis cinerea); test: Cucumber gray mold control test (foliar spray on cucumber seedlings); settings: in Cucumis sativus, 96 h, read-out: control value
[4] = tested on: Apple scab fungus (Venturia inaequalis); test: Apple scab control test (foliar spray on apple seedlings); assay type: in vivo; settings: 125 ppm active ingredient, sprayed on apple seedlings (variety Orin) before inoculation, vs untreated
Description: The dilution was sprayed to apple seedlings (variety “Orin”, 3 to 4 leaf stage) grown in clay pots. […] The control value was calculated by the following equation. [formula]

Measured: pest or weed control at 125 ppm

Cc1cn(CCCCOc2ccc(C(=N)N)cc2)c(=N)n1CCCCOc1ccc(C(=N)N)cc1 [compound 107]
≥ 75%: all assays above

N=C(N)NCCCCCCCCNC(=N)NCCCCCOc1ccc(C(=N)N)cc1 [compound 171]
≥ 75%: all assays above

N=C(N)NCCCCCCCCNC(=N)NCCOc1ccc(C2=NCCCN2)nc1 [compound 288]
≥ 75%: all assays above

N=C(N)NCCCCCCCCNC(=N)NCCC#Cc1ccc(C(=N)N)cc1 [compound 153]
≥ 75%: all assays above

N=C(N)NCCCCCCCn1ccn(CCCOc2ccc(C3=NCCCN3)cc2)c1=N [compound 206]
≥ 75%: all assays above

N=C(N)NCCCCCCCn1ccn(CCCCOc2ccc(C(=N)N)cc2)c1=N [compound 52, 4-[4-[3-(7-guanidinoheptyl)-2-imino-imidazol-1-yl]butoxy]benzamidine]
≥ 75%: all assays above

N=C(N)NCCCCCCCCNC(=N)NC/C=C/c1ccc(C(=N)N)cc1 [compound 167]
≥ 75%: all assays above

N=C(N)NCCCCCCCCCNC(=N)NCCOc1ccc(C2=NCCCN2)cc1 [compound 242]
≥ 75%: all assays above

N=C(NCC/C=C/c1ccc(C(=N)N)cc1)NCC/C=C/c1ccc(C(=N)N)cc1 [compound 151]
≥ 75%: all assays above

N=C(N)NCCCCCCCCNC(=N)NCCOc1ccc(C2=NCC(N)CN2)cc1 (stereo not drawn) [compound 285]
≥ 75%: all assays above

N=C(N)NCCCCCCCNC(=N)NCCCCOc1ccc(C2=NCC(N)CN2)cc1 (stereo not drawn) [compound 277]
≥ 75%: all assays above

N=C(N)NCCCCCCCNC(=N)NCCCCOc1ccc(C(=N)N)cn1 [compound 32, 6-(4-(3-(7-guanidinoheptyl)guanidino)butoxy)nicotinimidamide]
≥ 75%: all assays above

N=C(NCCCOCc1ccc(C(=N)N)cc1)NCCCOc1ccc(C(=N)N)cc1 [compound 142]
≥ 75%: all assays above

N=C(N)NCCCCCCCCNC(=N)NCCCOc1ccc(C(=N)N)cn1 [compound 120]
≥ 75%: all assays above

CN1CCCN=C1c1ccc(OCCNC(=N)NCCCCCCCCNC(=N)N)cc1 [compound 300]
≥ 75%: all assays above

CN(CCCCCCCCNC(=N)N)C(=N)NCCCOc1ccc(C(=N)N)cc1 [compound 140]
≥ 75%: all assays above

N=C(N)NCCCCCCCCNC(=N)NCCC=Cc1ccc(C(=N)N)cc1 [compound 157]
≥ 75%: all assays above

N=C(N)NCCCCCCCNC(=N)NCCCSc1ccc(C(=N)N)cc1 [compound 177]
≥ 75%: all assays above

CNC(=N)c1ccc(OCCCCn2ccn(CCCOc3ccc(C(=N)N)cc3)c2=N)cc1 [compound 124]
≥ 75%: all assays above

N=C(N)NCCCCCCCNC(=N)NCCC=Cc1ccc(C(=N)N)cc1 [compound 163]
≥ 75%: all assays above

N=C(N)c1ccc(OCCCCn2ccn(CCCOc3ccc(C(=N)N)cc3)c2=N)cc1 [compound 40, 4-[4-[3-[3-(4-carbamimidoylphenoxy)propyl]-2-imino-imidazol-1-yl]butoxy]benzamidine]
≥ 75%: all assays above

N=C(N)c1ccc(OCCCn2ccn(CCCOc3ccc(C(=N)N)cc3)c2=N)cc1 [compound 89]
≥ 75%: [1] | [2] | [4]

N=C(N)c1ccc(OCCCn2ccn(CCCOc3ccc(C(=N)N)c(F)c3)c2=N)cc1F [compound 103]
≥ 75%: all assays above

N=C(N)NCCCCCCCn1ccn(CCCOc2ccc(C(=N)N)cc2)c1=N [compound 25, 4-[3-[3-(7-guanidinoheptyl)-2-imino-imidazol-1-yl]propoxy]benzamidine]
≥ 75%: all assays above

N=C(N)NCCCCCCCCNC(=N)NCCCOc1ccc(C(=N)N)cc1 [compound 230]
≥ 75%: all assays above

N=C(N)c1ccc(OCCCCN2CCN(CCCCOc3ccc(C(=N)N)cc3)C2=N)cc1 [compound 6, 4-[4-[3-[4-(4-carbamimidoylphenoxy)butyl]-2-imino-imidazolidin-1-yl]butoxy]benzamidine]
≥ 75%: all assays above

N=C(N)NCCCCCCCNC(=N)NCCCCCOc1ccc(C(=N)N)cc1 [compound 186]
≥ 75%: all assays above

N=C(N)NCCCCCCNC(=N)NCCCCOc1ccc(C(=N)N)cc1 [compound 136]
≥ 75%: all assays above

N=C(N)NCCCCCCCCn1ccn(CCOc2ccc(C3=NCCCN3)cc2)c1=N [compound 270]
≥ 75%: [1] | [2] | [4]
